We go through eleven molecules from patent US9084420B2, “Amide derivative, pest control agent containing the amide derivative, and pest controlling method” (Mitsui Chemicals Agro, Inc., priority 2008, dated 2015).

One assay deals with Plutella xylostella. In words: Pesticidal test against Plutella xylostella (cabbage leaf immersion). Format: in vivo. As to conditions: 144 h, 3-stage larvae on treated cabbage leaf, 25° C., after 6 days, read-out: pesticidal rate. The protocol:
Pesticidal Test Against Plutella xylostella A piece of a cabbage leaf was immersed for 30 seconds in a chemical solution in which a test compound had been diluted at a predetermined concentration, and air-dried, and then put into a 7 cm polyethylene cup having a filter paper laid on the bottom thereof, and 3-stage larvae of Plutella xylostella were released. They were left to stand in a thermostatic chamber at 25° C., and the numbers of the living pests and the dead pests were examined after 6 days. The test was carried out with five larvae per group in two replicates.

The test system of a further assay is Spodoptera litura. In words: Pesticidal test against Spodoptera litura (cabbage leaf immersion). Format: in vivo. As to conditions: 144 h, 2-stage larvae on treated cabbage leaf, 25° C., after 6 days, read-out: pesticidal rate. The protocol: Pesticidal Test Against Spodoptera litura A piece of a cabbage leaf was immersed for 30 seconds in a chemical solution in which a test compound had been diluted at a predetermined concentration, and air-dried, and then put into a 7 cm polyethylene cup having a filter paper laid on the bottom thereof, and 2-stage larvae of Spodoptera litura were released. They were left to stand in a thermostatic chamber at 25° C., and the numbers of the living pests and the dead pests were examined after 6 days. The test was carried out with five larvae per group in two replicates.

Take `Cc1cc(C(F)(C(F)(F)F)C(F)(F)F)cc(C)c1N(C)C(=O)c1cccc(N(CS(C)(=O)=O)C(=O)c2ccccc2)c1` [6-8, N-(2,6-dimethyl-4-(perfluoropropan-2-yl)phenyl)-N-methyl-3-(N-(methylsulfonylmethyl)benzamide)benzamide]: the pest or weed control at 100 ppm with Plutella xylostella and in the assay with Spodoptera litura was not below 70% each time.

`COC(=O)CN(C(=O)c1cccc(N(C)C(=O)c2ccccc2)c1F)c1c(C)cc(C(F)(C(F)(F)F)C(F)(F)F)cc1C` [7-221, methyl 2-(N-(2,6-dimethyl-4-(perfluoropropan-2-yl)phenyl)-2-fluoro-3-(N-methylbenzamide)benzamide)acetate]: the pest or weed control at 100 ppm in the assay on Plutella xylostella and with Spodoptera litura was not below 70% throughout.

With `Cc1cc(C(F)(C(F)(F)F)C(F)(F)F)cc(C)c1NC(=O)c1cccc(N(CCCN)C(=O)c2ccccc2)c1` [6-20, N-(3-aminopropyl)-N-(3-(2,6-dimethyl-4-(perfluoropropan-2-yl)phenylcarbamoyl)phenyl)benzamide], the pest or weed control at 100 ppm in the assay with Plutella xylostella and in the assay with Spodoptera litura was not below 70% each time.

As to `Cc1cc(C(F)(C(F)(F)F)C(F)(F)F)cc(C)c1NC(=O)c1cccc(N(CC/C(N)=N/O)C(=O)c2ccccc2)c1` [5-91, N-(3-amino-3-(hydroxyimino)propyl)-N-(3-(2,6-dimethyl-4-(perfluoropropan-2-yl)phenylcarbamoyl)phenyl)benzamide], the pest or weed control at 100 ppm with Plutella xylostella and in the assay on Spodoptera litura was not below 70% each time.

Consider `COC(=O)CCCN(C(=O)c1ccccc1)c1cccc(C(=O)N(C)c2c(C)cc(C(F)(C(F)(F)F)C(F)(F)F)cc2C)c1` [6-13, methyl 4-(N-(3-((2,6-dimethyl-4-(perfluoropropan-2-yl)phenyl)(methyl)carbamoyl)phenyl)benzamide)butanoate], for which the pest or weed control at 100 ppm with Plutella xylostella is not below 70%.

On to `Cc1cc(C(F)(C(F)(F)F)C(F)(F)F)cc(C)c1NC(=O)c1cccc(N(CCCN/C(N)=N/[N+](=O)[O-])C(=O)c2ccccc2)c1` [6-61, N-(3-(2,6-dimethyl-4-(perfluoropropan-2-yl)phenylcarbamoyl)phenyl)-N-(3-(2-nitroguanidino)propyl)benzamide], for which the pest or weed control at 100 ppm in the assay with Spodoptera litura was not below 70%.

Consider `Cc1cc(C(F)(C(F)(F)F)C(F)(F)F)cc(C)c1N(CCO)C(=O)c1cccc(N(C)C(=O)c2ccccc2)c1F` [7-23, N-(2,6-dimethyl-4-(perfluoropropan-2-yl)phenyl)-2-fluoro-N-(2-hydroxyethyl)-3-(N-methylbenzamide)benzamide], for which the pest or weed control at 100 ppm with Plutella xylostella is not below 70%.

`CS(=O)(=O)CCN(C(=O)c1cccc(NC(=O)c2ccccc2)c1F)c1c(Br)cc(C(F)(C(F)(F)F)C(F)(F)F)cc1Br` [7-169, 3-benzamide-N-(2,6-dibromo-4-(perfluoropropan-2-yl)phenyl)-2-fluoro-N-(2-(methylsulfonyl)ethyl)benzamide]: the pest or weed control at 100 ppm in the assay on Plutella xylostella is not below 70%.

`Cc1cc(C(F)(C(F)(F)F)C(F)(F)F)cc(C)c1NC(=O)c1cccc(N(CCC(=O)O)C(=O)c2ccccc2)c1` [5-4, 3-(N-(3-(2,6-dimethyl-4-(perfluoropropan-2-yl)phenylcarbamoyl)phenyl)benzamide)propanoic acid]: in the assay on Plutella xylostella, the pest or weed control at 100 ppm was not below 70%.

Regarding `Cc1cc(C(F)(C(F)(F)F)C(F)(F)F)cc(C)c1N(CC(=O)O)C(=O)c1cccc(N(CC(=O)O)C(=O)c2ccccc2)c1F` [8-13, 2-(N-(3((carboxymethyl)(2,6-dimethyl-4-(perfluoropropan-2-yl)phenyl)carbamoyl)-2-fluorophenyl)benzamide)acetic acid], the pest or weed control at 100 ppm with Plutella xylostella was not below 70%.

Turning to `COC(=O)CCN(C(=O)c1cccc(NC(=O)c2ccccc2)c1)c1c(C)cc(C(F)(C(F)(F)F)C(F)(F)F)cc1C` [7-6, methyl 3-(3-benzamide-N-(2,6-dimethyl-4-(perfluoropropan-2-yl)phenyl)benzamide)propanoate], the pest or weed control at 100 ppm with Plutella xylostella is not below 70%.
